In patent US7939639B2, “Functional role of adrenomedullin (AM) and the gene related product (PAMP) in human pathology and physiology” (The United States of America as represented by the …, priority 1995, dated 2011):
“Also recorded” adds a separate entry of the source.

What was measured:
C. albicans = test: Germination assay, C. albicans; type: cell-based, Candida albicans
Procedure: Data were compiled from 11 experiments. Germination was determined by incubating colonies of C. albicans that were harvested from an overnight growth on SDA and suspended on RPMI-1640 containing concentrations of AM from 8 to 85 μM. Organisms were incubated at 37° C. and germination was measured at 2 h and 4 h by reading 100 to 200 organisms per concentration per time point in each experiment. Percent germination was assessed as the proportion of blastoconidia of C. albicans bearing the characteristic parallel-walled tubular element to the total number of blastoconidia.

[1] = test system: tumor cell lines (lung, colon, breast, brain, and ovary); type: cell-based, human; conditions: R0-grown cultures; AM 0.1 μM to 100 μM, 0.1 nM to 100 nM
Text: Results Obtained by Immunohistochemical (IHc) and in situ RT-PCR examination of paraffin-embedded RO-adapted cell lines were consistent with previously reported data on normal lung and pathological lung specimens (Martinez, A., et al., Endocrinology 136:4099-4105 (1995)). […] To further investigate this suspected phenomenon, MTT assay techniques were used to examine the effects of AM on the growth of several diverse tumor cell lines (lung, colon, breast, brain, and ovary). […] Since the test cells were known to produce authentic AM peptide, we assumed that this inability to stimulate growth with extrinsic ligand could possibly mean that the cells has already achieved maximal proliferative effects using their own AM.
i. Growth Assays: MTT techniques were performed as previously described (Nakanishi, Y. F., et al., Exper. Cell Biol. 56:74-85 (1988)). In brief, a single cell suspension of 2×10^5 cells/ml (50 μl/well) is seeded into 96-well PVC plates and an appropriate concentration of MoAb-G6 and AM was added in a volume of 50 μl. The assay is performed in TIS medium (RMPI 1640 plus 10 μg/ml transferrin, 10 μg/ml insulin and 3×10^−8M sodium selenite). […] The Biorad Microplate Manager plate reader and software was used to determine the change in number of viable cells from dye reduction measured by absorbance at 570 nm. […]

E. coli = test: Macrodilution assay, E. coli; type: cell-based, Escherichia coli; conditions: E. coli
Procedure: Data were compiled from six experiments. Macrodilution assays were performed in 12×75 mm borosilicate glass tubes. Organisms were grown and harvested, as described in Roilides, E., et al., J Infect Dis. 163:579 (1991), and adjusted to a final inoculum concentration of 8×10^3 cfu/ml in 400 μl. […] Tubes were incubated at 37° C. with gentle agitation over 24 hours. At 6 and 24 hour time points, 100 μl aliquots from each tube were quantitatively cultured by serial 100-fold dilutions onto TSA and SDA plates.

[2] = Oral glucose tolerance test in nonanesthetized rats; type: in vivo, Sprague-Dawley rats
Procedure: Glucose tolerance tests were performed on Sprague-Dawley rats (250 to 300 g) in the presence (◯) or absence (●) of AM. […] Glucose tolerance methods have been published previously (Brown, et al., Proc. Soc. Exp. Biol. Med. 150, 557 (1975)). Six rats were administered a glucose solution (400 mg/100 g body weight) via gastric intubation. Ocular blood samples were collected at intervals following glucose loading, and glucose concentration was determined by a calorimetric assay (Sigma). Blood insulin levels were determined on the same samples by radioimmunoassay (Amersham). Three days later, the same rats received 1 μL, of AM (60 μM) per g body weight through intravenous injection and tolerance tests were repeated. Data are means±standard deviations for the six animals. Two-tailed Student's test was performed to determine statistical significance. (*) indicates statistical significance (p<0.01).

Compound: CC[C@H](C)[C@H](NC(=O)[C@H](CCC(N)=O)NC(=O)[C@H](Cc1c[nH]cn1)NC(=O)[C@H](C)NC(=O)[C@H](CC(C)C)NC(=O)[C@H](CCCCN)NC(=O)[C@H](CCC(N)=O)NC(=O)[C@@H](NC(=O)[C@@H](NC(=O)[C@@H]1CSSC[C@H](NC(=O)CNC(=O)[C@H](Cc2ccccc2)NC(=O)[C@H](CO)NC(=O)[C@H](CCCNC(=N)N)NC(=O)[C@H](CC(C)C)NC(=O)CNC(=O)[C@H](CCC(N)=O)NC(=O)[C@H](Cc2ccccc2)NC(=O)[C@H](CC(N)=O)NC(=O)[C@H](CC(N)=O)NC(=O)[C@H](CCSC)NC(=O)[C@H](CO)NC(=O)[C@H](CCC(N)=O)NC(=O)[C@H](CCCNC(=N)N)NC(=O)[C@@H](N)Cc2ccc(O)cc2)C(=O)N[C@@H](CCCNC(=N)N)C(=O)N[C@@H](Cc2ccccc2)C(=O)NCC(=O)N[C@@H]([C@@H](C)O)C(=O)N1)[C@@H](C)O)C(C)C)C(=O)N[C@@H](Cc1ccc(O)cc1)C(=O)N[C@@H](CCC(N)=O)C(=O)N[C@@H](Cc1ccccc1)C(=O)N[C@H](C(=O)N[C@@H](CC(=O)O)C(=O)N[C@@H](CCCCN)C(=O)N[C@@H](CC(=O)O)C(=O)N[C@@H](CCCCN)C(=O)N[C@@H](CC(=O)O)C(=O)N[C@@H](CC(N)=O)C(=O)N[C@H](C(=O)N[C@@H](C)C(=O)N1CCC[C@H]1C(=O)N[C@@H](CCCNC(=N)N)C(=O)N[C@@H](CO)C(=O)N[C@@H](CCCCN)C(=O)N[C@H](C(=O)N[C@@H](CO)C(=O)N1CCC[C@H]1C(=O)N[C@@H](CCC(N)=O)C(=O)NCC(=O)N[C@@H](Cc1ccc(O)cc1)C(N)=O)[C@@H](C)CC)C(C)C)[C@@H](C)O [AM]
- suppression of germination of C. albicans, 2 hours (C. albicans; 2 hours incubation): non-significant trend in the suppression of germination; also recorded: not significant
- inhibition of germination of C. albicans, 4 hours (C. albicans; increasing concentrations of AM (8 to 85 μM), 4 hours incubation): significant inhibition of germination
- stimulation of growth by exogenous AM [1]: ineffective in stimulating growth
- antimicrobial activity, macrodilution, 6 hours (E. coli; 6 hours incubation): no activity
- antimicrobial activity, macrodilution, 24 hours (E. coli; 24 hours incubation): somewhat more active than PAMP; also recorded: slightly more active than PAMP
- insulin levels versus control ([2]; 20 min after intravenous injection of AM): Significant differences
- duration of block of insulin secretion ([2]; after intravenous injection of AM (1 μL of 60 μM per g body weight)): at least 20 min
- levels of circulating glucose versus control ([2]; after intravenous injection of AM, 1 h): significantly higher; also recorded: highly significant
